In paper PMC11876671, “Investigating blood–brain barrier penetration and neurotoxicity of natural products for central nervous system drug development” (Scientific Reports, 2025):
Structures can show the parent of a compound that is named as a salt.

Settings: PAMPA

Compound | PAMPA-BBB Pe | PAMPA-BBB permeability category
COc1ccc2c(c1OC)C(=O)O[C@@H]2[C@H]1c2c(cc3c(c2OC)OCO3)CCN1C [NOSCAPINE HYDROCHLORIDE] | 75 10^-6 cm/sec | 
Cn1c(=O)c2c(ncn2C)n(C)c1=O [caffeine, reference compound] |  | low permeability
NC(=O)N1c2ccccc2C=Cc2ccccc21 [carbamazepine, reference compound] |  | moderate permeability

Same assay, conditions: Table S2: compounds exhibiting moderate to high PAMPA-BBB permeability

Compound | PAMPA-BBB Pe
O=C1CCC[C@H]2[C@H]3CCCN4CCCC(=CN12)[C@@H]34 [NCGC00160276-01] | 33 10^-6 cm/sec
COc1cc2c(cc1OC)C(C(=O)c1ccc(OC)c(OC)c1O)=NCC2 [NCGC00160282-01] | 19 10^-6 cm/sec
c1cnc2c(-c3nccc4c3[nH]c3ccccc34)cccc2c1 [NCGC00160283-01] | 352 10^-6 cm/sec
CC1=CC(=O)C2=C(C)C[C@@H]3OC(=O)[C@@H](C)[C@H]3C=C12 [NCGC00160288-01] | 74 10^-6 cm/sec
COC(=O)C1=CO[C@@H](C)[C@@H]2CN3CC[C@]4(C(=O)Nc5c4ccc(OC)c5OC)[C@H]3C[C@H]12 [NCGC00160292-01] | 46 10^-6 cm/sec
COc1cc(/C=C/C(=O)c2ccc(O)cc2O)ccc1O [NCGC00163564-01] | 188 10^-6 cm/sec
C/C=C(/C)C(=O)O[C@H]1CC(C)=CC(=O)[C@@]2(C)CC[C@@](O)(C(C)C)[C@H]12 [NCGC00163582-01] | 125 10^-6 cm/sec
COc1cc(C(=O)O[C@H]2CC(C)=CCC/C(C)=C/[C@@H](O)C2C(C)C)ccc1O (stereo partly shown) [NCGC00163636-01] | 88 10^-6 cm/sec
C[C@@H]1O[C@@H](O[C@H]2CC[C@@H](O[C@H]3[C@H](O)C[C@H](c4ccc5c(c4O)C(=O)C4=C(C5=O)[C@@]5(O)C(=O)C[C@](C)(O[C@H]6CC[C@H](O[C@H]7C=CC(=O)[C@H](C)O7)[C@H](C)O6)C[C@@]5(O)C=C4)O[C@@H]3C)O[C@H]2C)C=CC1=O [NCGC00163640-01] | 17 10^-6 cm/sec
CC(=O)OC(C)(C)[C@@H]1Cc2cc3ccc(=O)oc3cc2O1 [NCGC00178115-02] | 128 10^-6 cm/sec
COc1cc2c(cc1-c1coc3c4c(c(OC)cc3c1=O)OC(C)(C)C=C4)OCO2 [NCGC00178961-03] | 146 10^-6 cm/sec
COc1ccc2c(c1)O[C@@H]1COc3cc(OC)c(OC)cc3[C@@H]1C2=O [NCGC00178970-02] | 355 10^-6 cm/sec
COc1ccc([C@H]2COc3c(ccc(O)c3OC)C2)c(OC)c1O [NCGC00179004-02] | 127 10^-6 cm/sec
C=C(C)[C@H]1COc2cc3oc(=O)ccc3cc2O1 [NCGC00179107-03] | 152 10^-6 cm/sec
CC1(C)C(=O)C=C[C@@]2(C)C1C[C@@H](O)[C@]1(C)C2CC[C@@]2(C)[C@H](c3ccoc3)OC(=O)[C@H]3O[C@]321 (stereo partly shown) [NCGC00179150-03] | 108 10^-6 cm/sec
CO[C@H]1C=C2CCN(C)[C@H]2C2c3cc4c(cc3C(=O)O[C@@H]21)OCO4 (stereo partly shown) [NCGC00179416-02] | 19 10^-6 cm/sec
COc1c2ccoc2nc2c(OC)c(OC[C@@H](O)C(C)(C)O)ccc12 [NCGC00179458-02] | 12 10^-6 cm/sec
COc1cc2c(cc1O)[C@@H]1Cc3ccc(OC)c(O)c3CN1CC2 [NCGC00179539-03] | 78 10^-6 cm/sec
CC1(C)C=Cc2c(ccc(C(=O)/C=C/c3ccccc3)c2O)O1 [NCGC00187466-02] | 10 10^-6 cm/sec
COc1cc(O)c2c(c1)/C=C/C[C@H](O)[C@H](O)[C@H](O)CCC[C@H](C)OC2=O [NCGC00189513-01] | 245 10^-6 cm/sec
NC(=O)Nc1ccc(Cl)c(Cl)c1 [NCGC00255466-01] | 148 10^-6 cm/sec
COc1ccc(-c2cc(=O)c3c(O)cc(OC)c(OC)c3o2)c(OC)c1 [NCGC00263973-02] | 201 10^-6 cm/sec
COC(=O)C[C@H]1C2(C)C[C@]34O[C@@]5(C)O[C@@]6([C@H](OC(C)=O)C(OC(C)=O)[C@]7(C)C(/C(=C(/O)C(C)C)C(=O)O[C@H]7c7ccoc7)[C@@]6(O5)[C@H](OC(C)=O)[C@@]3(O)C2OC(=O)C(C)C)[C@]14C (stereo partly shown) [NCGC00264007-02] | 28 10^-6 cm/sec
COc1ccc(-c2oc3cc(OC)c(OC)c(OC)c3c(=O)c2OC)cc1 [NCGC00264011-02] | 308 10^-6 cm/sec
CCCc1cc(=O)c2ccccc2n1C [NCGC00351153-01] | 137 10^-6 cm/sec
O=C(/C=C/c1ccc(O)c(O)c1)OCCc1ccccc1 [PHENETHYL CAFFEATE] | >1000 10^-6 cm/sec

Same assay, conditions: Table S3: compounds exhibiting low PAMPA-BBB permeability

Compound | PAMPA-BBB Pe(10^-6 cm/sec)
Cc1cc(O)c2c(c1O)C(=O)C(O)=C(O)C2=O [NCGC00160271-01] | 4.8 10^-6 cm/sec
CNCCCCc1cnc(C)c2[nH]c3ccccc3c12 [NCGC00160349-01] | <1 10^-6 cm/sec
COC(=O)C(O)C(O)(CCC(C)C)C(=O)OC1C(OC)=CC23CCCN2CCc2cc4c(cc2C13)OCO4 (stereo not shown) [NCGC00161614-01] | <1 10^-6 cm/sec
Cn1cnc2c(ncn2[C@@H]2O[C@H](CO)[C@@H](O)[C@H]2O)c1=N [NCGC00163305-01] | <1 10^-6 cm/sec
Nc1ncnc2c1ncn2[C@@H]1O[C@H](COP(=O)(O)OP(=O)(O)OC[C@H]2OC(O)[C@H](O)[C@@H]2O)[C@@H](O)[C@H]1O (stereo partly shown) [NCGC00163321-01] | <1 10^-6 cm/sec
COc1ccc2[nH]cc(CCO)c2c1 [NCGC00163352-01] | 9.4 10^-6 cm/sec
C[C@]12O[C@H](C[C@@]1(O)C(=O)O)n1c3ccccc3c3c4c(c5c6ccccc6n2c5c31)CNC4=O [NCGC00163504-01] | <1 10^-6 cm/sec
COc1cc2oc(=O)ccc2cc1O [NCGC00163577-02] | 2.2 10^-6 cm/sec
C[C@@H]1OC(O[C@H]2[C@H](Oc3cc(O)c4c(=O)c(O)c(-c5ccc(O)cc5)oc4c3)O[C@H](CO)[C@@H](O)[C@@H]2O)[C@H](O)[C@H](O)[C@H]1O (stereo partly shown) [NCGC00163581-01] | <1 10^-6 cm/sec
OC1c2ccccc2N=C2CCCN21 (stereo not shown) [NCGC00163606-01] | 5.3 10^-6 cm/sec
COc1cc(-c2oc3cc(O)cc(O)c3c(=O)c2O[C@@H]2O[C@H](CO)[C@@H](O)[C@H](O)[C@H]2O)cc(OC)c1O [NCGC00163630-01] | <1 10^-6 cm/sec
COC1=C(O)C(=O)c2c(cc3oc(C(C)=O)c(O)c3c2O)C1=O [NCGC00178066-02] | <1 10^-6 cm/sec
CC(=O)O[C@H]1C[C@@H](OC(C)=O)C(C)(C)C2C[C@@H](OC(C)=O)[C@]3(C)C(CC[C@@]4(C)[C@H](c5ccoc5)OC(=O)[C@H]5O[C@]543)[C@]21C (stereo partly shown) [NCGC00179019-03] | 2.7 10^-6 cm/sec
CC1(C)C(=O)C=C[C@@]2(C)C1CC(=O)[C@]1(C)C2CC[C@@]2(C)[C@H](c3ccoc3)OC(=O)[C@H]3O[C@]321 (stereo partly shown) [NCGC00179119-02] | <1 10^-6 cm/sec
COc1cc(C(=O)OC2C[C@H]3CC[C@@H](C2)N3C)ccc1O (stereo partly shown) [NCGC00179405-02] | 8.5 10^-6 cm/sec
O=C(CO)c1c[nH]c2ccccc12 [NCGC00182562-01] | 6.7 10^-6 cm/sec
Cc1c(O)c2c(c(C(=O)/C=C/c3ccccc3)c1O)OC(C)(C)C=C2 [NCGC00187465-01] | <1 10^-6 cm/sec
CC1=CC(=O)/C(=C(/C)O)C(=O)O1 [NCGC00254206-01] | 3.3 10^-6 cm/sec

Compound | PAMPA-BBB Pe(10^-6 cm/sec)
CC(=O)NCCc1c[nH]c2ccccc12 [NCGC00260786-01] | 5.7 10^-6 cm/sec
CN(N=O)c1cc(O)ccc1O [NCGC00261088-01] | <1 10^-6 cm/sec
COc1cc(C(O)CO)ccc1OS(=O)(=O)[O-].[K+] (stereo not shown) [NCGC00261311-01] | <1 10^-6 cm/sec
C=C/C(C)=C/[C@@]1(C)SC(=O)C(C)=C1O [NCGC00261593-01] | <1 10^-6 cm/sec
c1ccc2c3c([nH]c2c1)[C@H]1[C@@H]2CC[C@@H]([C@@H]4CCCN[C@@H]42)N1CC3 [NCGC00262532-02] | <1 10^-6 cm/sec
C=CC(O)C1OC1C=CC1OC1C(C)O (stereo not shown) [NCGC00263647-01] | <1 10^-6 cm/sec
O=C(OC[C@H]1O[C@H](OC(=O)c2cc(O)c(O)c(OC(=O)c3cc(O)c(O)c(O)c3)c2)[C@H](OC(=O)c2cc(O)c(O)c(OC(=O)c3cc(O)c(O)c(O)c3)c2)[C@@H](OC(=O)c2cc(O)c(O)c(OC(=O)c3cc(O)c(O)c(O)c3)c2)[C@@H]1OC(=O)c1cc(O)c(O)c(OC(=O)c2cc(O)c(O)c(O)c2)c1)c1cc(O)c(O)c(OC(=O)c2cc(O)c(O)c(O)c2)c1 [NCGC00263877-02] | <1 10^-6 cm/sec
CC(=O)NCCc1ccc(O)c(-c2c(O)c(O)c3c(c2O)C(=O)c2c(cc(O)c(C(=O)O)c2C(=O)O)C3=O)c1 [NCGC00263986-01] | <1 10^-6 cm/sec
COC(=O)[C@H](Cc1ccccc1)NC(=O)/C(=C1\OC(=O)C(c2ccccc2)=C1O)c1ccccc1 [NCGC00263991-01] | <1 10^-6 cm/sec
O=C1CC[C@]23/C=C/C(=O)NCCCCNCCCNC(=O)/C=C/c4ccc(c2c4)O[C@@H]3C1 [NCGC00263997-01] | <1 10^-6 cm/sec
C[N+]12CC[C@@]34c5ccccc5N5C(=O)C[C@@H]6OCC=C(C1)[C@H](CC32)[C@@H]6C54 (stereo partly shown) [NCGC00264058-02] | <1 10^-6 cm/sec
COc1cc(/C=C2/C(=O)Nc3ccccc32)cc(OC)c1O [NCGC00343740-01] | 4.8 10^-6 cm/sec
COC(=O)C1=CC[C@@]23CC[C@@H]([C@@](C)(/C=C/C=C(\C)C(=O)O)OC2=O)[C@@]3(OC(C)=O)CC1 [NCGC00344122-04] | <1 10^-6 cm/sec
O=C1c2ccccc2-[n+]2ccc3c([nH]c4ccccc43)c21 [NCGC00346951-03] | <1 10^-6 cm/sec
COc1ccccc1O[C@@H]1O[C@H](CO)[C@H](O)[C@H](O)[C@H]1O [NCGC00351878-01] | 1.5 10^-6 cm/sec
OC[C@H]1O[C@@H](Oc2cccc3ccccc23)[C@H](O)[C@@H](O)[C@H]1O [NCGC00351880-01] | <1 10^-6 cm/sec
OC[C@H]1O[C@@H](n2cnc3cncnc32)[C@H](O)[C@@H]1O [NEBULARINE¦NEBULARINE] | <1 10^-6 cm/sec
